Data published in article PMC6336494 (Nature communications, 2015).

Target: myeloperoxidase (MPO) (Homo sapiens, UniProt P05164)
Test: guaiacol/H2O2 peroxidase activity assay with purified human MPO
Assay type: biochemical

Sequence of myeloperoxidase (MPO) (P05164 165-273): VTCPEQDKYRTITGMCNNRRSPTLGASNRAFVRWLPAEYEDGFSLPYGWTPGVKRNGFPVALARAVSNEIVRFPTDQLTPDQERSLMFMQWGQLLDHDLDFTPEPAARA
Sequence of myeloperoxidase (MPO) (P05164 279-745): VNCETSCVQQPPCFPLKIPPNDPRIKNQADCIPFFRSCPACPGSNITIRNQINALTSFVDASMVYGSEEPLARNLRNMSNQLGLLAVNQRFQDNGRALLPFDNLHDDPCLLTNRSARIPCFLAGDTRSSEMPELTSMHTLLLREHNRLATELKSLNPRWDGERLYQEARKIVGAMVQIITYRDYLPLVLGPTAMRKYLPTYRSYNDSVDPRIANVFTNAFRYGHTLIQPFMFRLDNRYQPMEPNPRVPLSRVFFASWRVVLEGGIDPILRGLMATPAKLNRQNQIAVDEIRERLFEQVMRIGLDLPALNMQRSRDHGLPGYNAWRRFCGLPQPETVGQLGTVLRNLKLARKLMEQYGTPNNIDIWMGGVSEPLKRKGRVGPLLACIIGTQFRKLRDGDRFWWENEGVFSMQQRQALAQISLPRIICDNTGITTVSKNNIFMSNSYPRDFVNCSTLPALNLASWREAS

IC50: ~1000 nM
SMILES: O=C(N[C@H]1COC(=O)[C@@H](NC(=O)c2cccc(O)c2O)COC(=O)[C@@H](NC(=O)c2cccc(O)c2O)COC1=O)c1cccc(O)c1O [enterobactin]
